What was measured:
[1] = format: physicochemical; settings: pH 4.5
Description: Prior to the testing of solubility and stability of a peptide batch, its content was determined. Therefore, two parameters were investigated, its purity (HPLC-UV) and the amount of salt load of the batch (ion chromatography). Since synthesized peptides contain primarily trifluoroacetate anions, only anion chromatography was performed.
. Therefore, solutions from solid samples were prepared in different buffer systems with a concentration of 1.0 mg/mL compound based on the previously determined content. HPLC-UV was performed after 2 h of gentle agitation from the supernatant, which was obtained by 20 min of centrifugation at 4000 rpm.
This analysis also served as starting point (t0) for the stability testing.
Instrument: Agilent 1100, column: X-Bridge C18 3.5 μm 2.1×150 mm (Waters), eluent: A: H20+500 ppm TFA/B: Methanol, flow: 0.55 mL/min, gradient: 0-5 min: 10-60% B; 5-15 min: 60-99% B; detection: 214 nm.

human GLP-1 receptor = target: T1, human GLP-1 receptor (Homo sapiens, UniProt P43220); test: cAMP response (HTRF) of HEK-293 cells stably expressing human GLP-1 receptor; format: cell-based; settings: Table 5, read-out: EC50 hGLP-1R
T1 construct: expressed in transfected cells; host or cells: HEK-293

human glucagon receptor = target: T2, human glucagon receptor (Homo sapiens, UniProt P47871); test: cAMP response (HTRF) of HEK-293 cells stably expressing human glucagon receptor; format: cell-based; settings: Table 5, read-out: EC50 hGlucagon-R
T2 construct: expressed in transfected cells; host or cells: HEK-293
T2 sequence (P47871 26-477): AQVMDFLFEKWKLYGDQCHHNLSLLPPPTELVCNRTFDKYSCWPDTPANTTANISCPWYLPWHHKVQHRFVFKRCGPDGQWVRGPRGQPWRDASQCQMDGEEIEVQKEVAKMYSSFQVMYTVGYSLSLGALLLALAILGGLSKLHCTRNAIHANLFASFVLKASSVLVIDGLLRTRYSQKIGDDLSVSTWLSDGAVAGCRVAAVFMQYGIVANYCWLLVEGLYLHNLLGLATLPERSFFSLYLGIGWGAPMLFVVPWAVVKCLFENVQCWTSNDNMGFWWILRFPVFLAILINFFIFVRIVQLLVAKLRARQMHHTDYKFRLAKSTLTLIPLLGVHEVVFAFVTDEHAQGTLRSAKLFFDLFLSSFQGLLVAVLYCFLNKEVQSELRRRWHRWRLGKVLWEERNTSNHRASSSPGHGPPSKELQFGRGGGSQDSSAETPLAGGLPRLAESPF

T1 sequence (P43220 24-463): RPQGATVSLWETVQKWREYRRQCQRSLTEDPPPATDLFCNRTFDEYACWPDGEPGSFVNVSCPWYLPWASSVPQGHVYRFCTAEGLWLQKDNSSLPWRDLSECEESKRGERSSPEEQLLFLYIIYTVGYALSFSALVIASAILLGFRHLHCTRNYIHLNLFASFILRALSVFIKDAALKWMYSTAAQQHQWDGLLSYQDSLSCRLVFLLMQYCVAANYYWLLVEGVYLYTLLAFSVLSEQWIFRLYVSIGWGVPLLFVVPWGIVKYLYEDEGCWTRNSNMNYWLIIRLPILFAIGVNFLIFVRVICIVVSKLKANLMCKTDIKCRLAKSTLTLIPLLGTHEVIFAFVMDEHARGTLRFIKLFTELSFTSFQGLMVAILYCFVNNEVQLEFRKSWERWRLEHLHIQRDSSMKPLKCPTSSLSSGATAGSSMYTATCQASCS

Row | Solubility pH4.5 [1] [mg/ml] | Structure (SMILES) | EC50 (human GLP-1 receptor) [pM] | EC50 (human glucagon receptor) [pM]
1 | 0 | CCCCCCCCCCCCCCCC(=O)N[C@@H](CCC(=O)NCCCC[C@H](NC(=O)[C@H](C)NC(=O)[C@H](C)NC(=O)[C@H](CCC(N)=O)NC(=O)CNC(=O)[C@H](CCC(=O)O)NC(=O)[C@H](CC(C)C)NC(=O)[C@H](Cc1ccc(O)cc1)NC(=O)[C@H](CO)NC(=O)[C@H](CO)NC(=O)[C@@H](NC(=O)[C@H](CC(=O)O)NC(=O)[C@H](CO)NC(=O)[C@@H](NC(=O)[C@H](Cc1ccccc1)NC(=O)[C@@H](NC(=O)CNC(=O)[C@H](CCC(=O)O)NC(=O)[C@H](C)NC(=O)[C@@H](N)Cc1cnc[nH]1)[C@@H](C)O)[C@@H](C)O)C(C)C)C(=O)N[C@@H](CCC(=O)O)C(=O)N[C@@H](Cc1ccccc1)C(=O)N[C@H](C(=O)N[C@@H](C)C(=O)N[C@@H](Cc1c[nH]c2ccccc12)C(=O)N[C@@H](CC(C)C)C(=O)N[C@H](C(=O)N[C@@H](CCCNC(=N)N)C(=O)NCC(=O)N[C@@H](CCCNC(=N)N)C(=O)NCC(=O)O)C(C)C)[C@@H](C)CC)C(=O)O [compound 195] | – | –
2 | – | CCCCCCCCCCCCCCCC(=O)N[C@@H](CCC(=O)NCCCC[C@H](NC(=O)[C@H](CCC(N)=O)NC(=O)[C@H](CCCCN)NC(=O)[C@H](CO)NC(=O)[C@H](CC(C)C)NC(=O)[C@H](CC(=O)O)NC(=O)[C@H](CO)NC(=O)[C@@H](NC(=O)[C@H](Cc1ccccc1)NC(=O)[C@@H](NC(=O)CNC(=O)[C@H](Cc1c[nH]cn1)NC(=O)[C@H](CO)NC(=O)[C@@H](N)Cc1c[nH]cn1)[C@@H](C)O)[C@@H](C)O)C(=O)N[C@@H](CCC(=O)O)C(=O)N[C@@H](CO)C(=O)N[C@@H](CCCNC(=N)N)C(=O)N[C@@H](CCCNC(=N)N)C(=O)N[C@@H](C)C(=O)N[C@@H](CCC(N)=O)C(=O)N[C@@H](CC(=O)O)C(=O)N[C@@H](Cc1ccccc1)C(=O)N[C@H](C(=O)N[C@@H](CCC(=O)O)C(=O)N[C@@H](Cc1c[nH]c2ccccc12)C(=O)N[C@@H](CC(C)C)C(=O)N[C@@H](CCCCN)C(=O)N[C@@H](C)C(=O)NCC(=O)NCC(=O)N1CCC[C@H]1C(=O)N[C@@H](CO)C(=O)N[C@@H](CO)C(=O)NCC(=O)N[C@@H](C)C(=O)N1CCC[C@H]1C(=O)N1CCC[C@H]1C(=O)N1CCC[C@H]1C(=O)N[C@@H](CO)C(N)=O)[C@@H](C)CC)C(=O)O [compound 208] | 2 | 1.3

— patent US20140100156A1 (SANOFI, priority 2012, published 2014)
